Data on 18 molecules can be found in patent publication US11999727B2 (Tango Therapeutics, Inc., priority 2020, dated 2024).

Molecules are shown by their SMILES. pIC50: −log10 of the molar value. Read-outs that look alike come from different tables or passages of the source. Bounds are passed on as bounds.

In test [1] the target is T1, PRMT5 (Homo sapiens, UniProt O14744).
T1 construct: purchased Viva (custom protein)
Description: PRMT5 biochemical IC50 assay with SAM as cofactor. Particulars: PRMT5, SAM as cofactor; read-out: SAM IC50.

For test [2], the target named is T1, PRMT5. Description: PRMT5 biochemical IC50 assay with no cofactor. Particulars: PRMT5, no cofactor; read-out: No Cofactor/ rel IC50. The source says: Table 1 indicates IC50 values (μM) against PRMT5 for exemplary compounds in the presence of SAM as cofactor, with no cofactor, and with MTA as cofactor, respectively (columns 4-6). […] Ki values can be calculated from the IC50 values as described in the Examples section. As detailed in the Examples section, for the assay performed in the presence of SAM, IC50=Ki×1.5 (Ki=IC50/1.5).

For test [3], the target named is T1, PRMT5. Briefly: PRMT5 biochemical IC50 assay with MTA as cofactor. Particulars: PRMT5, MTA as cofactor; read-out: MTA IC50.
For test [4], the system named is HAP1 MTAP-intact cell line. Briefly: SDMA in-cell western assay, HAP1 MTAP-intact. Format: cell-based. The settings on record: HAP1 MTAP-intact, read-out: MTAP HAP1 intact IC50. In short, it runs like this: (§1)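 Readout: in-cell western detection of SDMA. Cells: HAP1 expressing endogenous MTAP and an MTAP-null HAP1 counterpart. Output: IC50.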
Test [5] has as its system HAP1 MTAP-deleted cell line. Description: SDMA in-cell western assay, HAP1 MTAP-deleted. Particulars: for pIC50: HAP1 MTAP-deleted, read-out: HAP 1 MTAP deleted IC50; for MTAP intact/deleted ratio: IC50 ratio HAP1 MTAP-intact / HAP1 MTAP-deleted. Format: cell-based. The method, boiled down: as §1
Test [6] has as its system HAP1 MTAP-deleted cell line. Briefly: Viability assay, MTAP-deleted cell line. Format: cell-based. Particulars: HAP1 MTAP-deleted cell line, read-out: HAP1 MTAP deleted viability. The text has this: Table 1 additionally indicates IC50 values in a viability assay for the MTAP-deleted cell line (column 10), indicating the effect of treatment with compound on cell survival.

Setting [7] is: Homo sapiens, HAP1, SDMA in-cell western.

T1 sequence (O14744 whole entry): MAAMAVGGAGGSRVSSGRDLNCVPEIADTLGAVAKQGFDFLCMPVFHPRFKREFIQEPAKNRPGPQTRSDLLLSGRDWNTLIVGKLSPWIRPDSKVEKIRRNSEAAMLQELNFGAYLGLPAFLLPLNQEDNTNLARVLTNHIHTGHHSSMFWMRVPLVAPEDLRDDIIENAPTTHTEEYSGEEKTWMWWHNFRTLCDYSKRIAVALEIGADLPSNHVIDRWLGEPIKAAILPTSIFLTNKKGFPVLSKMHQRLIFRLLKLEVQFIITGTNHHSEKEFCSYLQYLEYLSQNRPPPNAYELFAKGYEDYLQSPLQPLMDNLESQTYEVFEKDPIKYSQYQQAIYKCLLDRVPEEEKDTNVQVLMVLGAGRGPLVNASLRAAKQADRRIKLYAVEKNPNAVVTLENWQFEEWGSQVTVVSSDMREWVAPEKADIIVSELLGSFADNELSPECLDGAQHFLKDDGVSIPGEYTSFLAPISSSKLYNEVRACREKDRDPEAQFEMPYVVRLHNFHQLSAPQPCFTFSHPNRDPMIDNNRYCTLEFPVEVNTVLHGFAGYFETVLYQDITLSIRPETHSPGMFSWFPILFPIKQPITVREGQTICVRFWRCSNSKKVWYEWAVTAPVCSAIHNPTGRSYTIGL
T1 sequence (Q9BQA1 whole entry partner): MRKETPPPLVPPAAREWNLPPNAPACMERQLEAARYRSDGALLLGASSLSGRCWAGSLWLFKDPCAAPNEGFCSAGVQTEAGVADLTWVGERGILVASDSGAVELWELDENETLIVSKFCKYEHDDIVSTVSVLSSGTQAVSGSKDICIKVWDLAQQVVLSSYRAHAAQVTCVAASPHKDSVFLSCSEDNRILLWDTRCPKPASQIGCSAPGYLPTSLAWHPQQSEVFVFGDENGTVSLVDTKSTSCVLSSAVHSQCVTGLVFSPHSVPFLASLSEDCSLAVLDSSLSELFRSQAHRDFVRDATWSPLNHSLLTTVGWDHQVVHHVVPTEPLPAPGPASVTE

As to `Cc1nc2cc([C@H]3CC[C@H](C)CN3C(=O)C(=O)Nc3cnc(N)c(C4CC4)c3)ccc2s1` (single isomer, unassigned) [Compound 1313], the pIC50 is 6.30 to 7.30 on PRMT5 [1]; > 7.30 at PRMT5 [2]; > 7.30 at PRMT5 [3]; 6.00 to 7.00 in test [4] (setting [7]); > 7.00 in test [5] (setting [7]); > 6.00 in test [6] (Homo sapiens, HAP1, viability). Moreover, the “MTAP intact/deleted ratio” value in test [5] (SDMA in-cell western) is “A (an IC50 ratio greater than or equal to 10 fold)”.

With `CCc1cc(NC(=O)C(=O)N2C[C@@H](C)CC[C@@H]2c2ccc3sc([C@@H](C)N(C)C)nc3c2)cnc1N` (single isomer, unassigned) [Compound 1316], the pIC50 on PRMT5 [1] is 6.30 to 7.30; on PRMT5 [2], > 7.30; on PRMT5 [3], > 7.30; in test [4] (setting [7]), > 7.00; in test [5] (setting [7]), > 7.00; in test [6] (Homo sapiens, HAP1, viability), > 6.00. The “MTAP intact/deleted ratio” value in test [5] (SDMA in-cell western) is given as “A (an IC50 ratio greater than or equal to 10 fold)”.

Take `Cc1cc(NC(=O)C(=O)N2C[C@@H](C)CC[C@@H]2c2ccc(CCN(C)C)cc2)cnc1N` (single isomer, unassigned) [Compound 1322]: the pIC50 is < 6.30 at PRMT5 [1]; < 6.30 at PRMT5 [2]; < 6.30 at PRMT5 [3]; < 6.00 in test [4] (setting [7]); < 6.00 in test [5] (setting [7]); < 5.00 in test [6] (Homo sapiens, HAP1, viability).

As for `Cc1cc(NC(=O)C(=O)N2C[C@H](C)[C@H](OC(F)(F)F)C[C@H]2c2ccc(F)cc2)cnc1N` (single isomer, unassigned) [Compound 1323], the pIC50 at PRMT5 [1] is < 6.30; at PRMT5 [2] it was < 6.30; at PRMT5 [3] it was < 6.30; in test [4] (setting [7]) it was < 6.00; in test [5] (setting [7]), < 6.00; in test [6] (Homo sapiens, HAP1, viability) it was < 5.00.

For `Cc1cc(NC(=O)C(=O)N2C[C@@H](C)[C@H](OC(C)C)C[C@@H]2c2ccccc2)cnc1N` (single isomer, unassigned) [Compound 1327], the pIC50 at PRMT5 [1] is < 6.30; on PRMT5 [2], < 6.30; at PRMT5 [3], < 6.30; in test [4] (setting [7]) it was < 6.00; in test [5] (setting [7]), < 6.00; in test [6] (Homo sapiens, HAP1, viability), 5.00 to 6.00.

With `Cc1cc(NC(=O)C(=O)N2C[C@@H](C)CC[C@@H]2c2ccc(N3CCN(C)CC3)cc2)cnc1N` (single isomer, unassigned) [Compound 1328], the pIC50 on PRMT5 [1] is 6.30 to 7.30; at PRMT5 [2], > 7.30; on PRMT5 [3], > 7.30; in test [4] (setting [7]), > 7.00; in test [5] (setting [7]), > 7.00; in test [6] (Homo sapiens, HAP1, viability) it was > 6.00. Besides, the “MTAP intact/deleted ratio” value in test [5] (SDMA in-cell western) is recorded as “B (an IC50 ratio greater than or equal to 3 fold but lower than 10 fold)”.

Consider `C[C@H]1CC[C@H](c2ccc3sc(CCN(C)C)nc3c2)N(C(=O)C(=O)Nc2cnc(N)c(C3CC3)c2)C1` (single isomer, unassigned) [Compound 1331], for which the pIC50 was < 6.30 on PRMT5 [1]; < 6.30 on PRMT5 [2]; < 6.30 at PRMT5 [3]; < 6.00 in test [4] (setting [7]); 6.00 to 7.00 in test [5] (setting [7]); 5.00 to 6.00 in test [6] (Homo sapiens, HAP1, viability). In addition, in test [5] (SDMA in-cell western), the “MTAP intact/deleted ratio” value is reported as “A (an IC50 ratio greater than or equal to 10 fold)”.

Take `COCCc1nc2cc([C@@H]3CC[C@@H](C)CN3C(=O)C(=O)Nc3cnc(N)c(C4CC4)c3)ccc2s1` (single isomer, unassigned) [Compound 1332]: the pIC50 is 6.30 to 7.30 on PRMT5 [1]; 6.30 to 7.30 on PRMT5 [2]; > 7.30 on PRMT5 [3]; 6.00 to 7.00 in test [4] (setting [7]); > 7.00 in test [5] (setting [7]); > 6.00 in test [6] (Homo sapiens, HAP1, viability).

As to `C[C@@H]1CC[C@@H](c2ccc3cncn3c2)N(C(=O)C(=O)Nc2cnc(N)c(C3CC3)c2)C1` (single isomer, unassigned) [Compound 1336, N-(6-amino-5-cyclopropylpyridin-3-yl)-2-(2-(imidazo[1,5-a]pyridin-6-yl)-5-methylpiperidin-1-yl)-2-oxoacetamide], the pIC50 on PRMT5 [1] was < 6.30; at PRMT5 [2], < 6.30; on PRMT5 [3], < 6.30; in test [4] (setting [7]), < 6.00; in test [5] (setting [7]), 6.00 to 7.00; in test [6] (Homo sapiens, HAP1, viability) it was 5.00 to 6.00.

With `C[C@H]1CC[C@H](c2ccc3sc(C4CCN(C)CC4)nc3c2)N(C(=O)C(=O)Nc2cnc(OC(F)(F)F)c(C(N)=O)c2)C1` (single isomer, unassigned) [Compound 1337], the pIC50 is > 7.30 on PRMT5 [1]; > 7.30 on PRMT5 [2]; > 7.30 on PRMT5 [3]; > 7.00 in test [4] (setting [7]); > 7.00 in test [5] (setting [7]); > 6.00 in test [6] (Homo sapiens, HAP1, viability). The “MTAP intact/deleted ratio” value in test [5] (SDMA in-cell western) was “B (an IC50 ratio greater than or equal to 3 fold but lower than 10 fold)”.

Consider `CCc1cc(NC(=O)C(=O)N2C[C@@H](C)CC[C@@H]2c2ccc(N3CCOC4(CN(C)C4)C3)cc2)cnc1N` (single isomer, unassigned) [Compound 1339], for which the pIC50 is 6.30 to 7.30 at PRMT5 [1]; > 7.30 on PRMT5 [2]; > 7.30 at PRMT5 [3]; 6.00 to 7.00 in test [4] (setting [7]); > 7.00 in test [5] (setting [7]); > 6.00 in test [6] (Homo sapiens, HAP1, viability). Moreover, the “MTAP intact/deleted ratio” value in test [5] (SDMA in-cell western) was “A (an IC50 ratio greater than or equal to 10 fold)”.

Regarding `COc1ncc(NC(=O)C(=O)N2C[C@@H](C)[C@@H](OC)C[C@@H]2c2ccc3scnc3c2)cc1C(N)=O` (single isomer, unassigned) [Compound 1344], the pIC50 on PRMT5 [1] is < 6.30; at PRMT5 [2], < 6.30; on PRMT5 [3], < 6.30; in test [4] (setting [7]), < 6.00; in test [5] (setting [7]), 6.00 to 7.00; in test [6] (Homo sapiens, HAP1, viability), 5.00 to 6.00.

Consider `Cc1cc(NC(=O)C(=O)N2C[C@@H](C)CC[C@@H]2c2cc(F)c3[nH]ncc3c2)cnc1N` (single isomer, unassigned) [Compound 1350], for which the pIC50 on PRMT5 [1] was 6.30 to 7.30; at PRMT5 [2] it was > 7.30; at PRMT5 [3], > 7.30; in test [4] (setting [7]), 6.00 to 7.00; in test [5] (setting [7]), > 7.00; in test [6] (Homo sapiens, HAP1, viability), > 6.00. In addition, the “MTAP intact/deleted ratio” value in test [5] (SDMA in-cell western) is “A (an IC50 ratio greater than or equal to 10 fold)”.

As for `Cc1cc(NC(=O)C(=O)N2C[C@H](C)[C@H](OC(C)C)C[C@H]2c2ccccc2)cnc1N` (single isomer, unassigned) [Compound 1351], the pIC50 on PRMT5 [1] was > 7.30; on PRMT5 [2], > 7.30; at PRMT5 [3] it was > 7.30; in test [4] (setting [7]) it was > 7.00; in test [5] (setting [7]) it was > 7.00; in test [6] (Homo sapiens, HAP1, viability) it was > 6.00. The “MTAP intact/deleted ratio” value in test [5] (SDMA in-cell western) is recorded as “B (an IC50 ratio greater than or equal to 3 fold but lower than 10 fold)”.

Turning to `CCc1cc(NC(=O)C(=O)N2C[C@@H](C)CC[C@@H]2c2cccc([C@H]3CCCN(C)C3)c2)cnc1N` (single isomer, unassigned) [Compound 1353], the pIC50 on PRMT5 [1] is 6.30 to 7.30; at PRMT5 [2], > 7.30; on PRMT5 [3] it was > 7.30; in test [4] (SDMA in-cell western) it was 6.00 to 7.00; in test [5] (SDMA in-cell western), > 7.00; in test [6] (viability) it was > 6.00. In addition, in test [5] (SDMA in-cell western), the “MTAP intact/deleted ratio” value is recorded as “A (an IC50 ratio greater than or equal to 10 fold)”.

With `CCc1cc(NC(=O)C(=O)N2C[C@H](C)C(F)(F)C[C@H]2c2ccc3[nH]ncc3c2)cnc1N` (single isomer, unassigned) [Compound 1357, N-(6-amino-5-ethylpyridin-3-yl)-2-(4,4-difluoro-2-(1H-indazol-5-yl)-5-methylpiperidin-1-yl)-2-oxoacetamide], the pIC50 on PRMT5 [1] is 6.30 to 7.30; at PRMT5 [2], 6.30 to 7.30; on PRMT5 [3], > 7.30; in test [4] (setting [7]), > 7.00; in test [5] (setting [7]), > 7.00; in test [6] (Homo sapiens, HAP1, viability), > 6.00. In addition, the “MTAP intact/deleted ratio” value in test [5] (SDMA in-cell western) is “A (an IC50 ratio greater than or equal to 10 fold)”.

As for `Cc1cc(NC(=O)C(=O)N2C[C@H](C)CC[C@H]2c2ccc(CCN(C)C)cc2)cnc1N` (single isomer, unassigned) [Compound 1358], the pIC50 on PRMT5 [1] is 6.30 to 7.30; on PRMT5 [2], > 7.30; on PRMT5 [3], > 7.30; in test [4] (setting [7]), > 7.00; in test [5] (setting [7]), > 7.00; in test [6] (Homo sapiens, HAP1, viability) it was > 6.00. The “MTAP intact/deleted ratio” value in test [5] (SDMA in-cell western) was “A (an IC50 ratio greater than or equal to 10 fold)”.

Turning to `CCc1cc(NC(=O)C(=O)N2C[C@@H](C)CC[C@@H]2c2ccc(N3CCN(CC)CC3)cc2)cnc1N` (single isomer, unassigned) [Compound 1360], the pIC50 at PRMT5 [1] was < 6.30; on PRMT5 [2] it was < 6.30; on PRMT5 [3], < 6.30; in test [4] (setting [7]), < 6.00; in test [5] (setting [7]), < 6.00; in test [6] (Homo sapiens, HAP1, viability) it was < 5.00.
